The results in this text go back to PubChem BioAssay (NCI).

Values joined by “and” are separate entries in the source; they are usually repeats but may differ in a detail not shown here. Equal entries are not always repeated.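 Following 48 hours of exposure in 96-well plates, responses at five concentrations were used to interpolate endpoints linearly. GI50 is the concentration that inhibits growth by half. TGI is the concentration that stops growth completely.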 Where only a bound is given, the exact number is not on record here.

Some test systems named below: A498 renal; DU-145 prostate; HL-60(TB) leukemia; MALME-3M melanoma; NCI-H460 lung; OVCAR-5 ovarian; SR leukemia; T-47D breast; UACC-257 melanoma; SF-539 CNS.
What all share (assay): growth of human tumour cells (NCI), 48 h

On to `CC(=O)OCC1OC(O[C@@H]2C[C@H]3C(C)(C)[C@H](OC(C)=O)CC[C@]3(C)[C@H]3CCC4=C([C@@H](C)C[C@@H](O)[C@H](O)C(C)(C)O)CC[C@@]4(C)[C@@]32C)C(O)C(O)C1O` (some centres undefined), for which the GI50 was 17.2 µM in the assay on A498 renal; 17.8 µM in the assay on DU-145 prostate; 13 µM with HL-60(TB) leukemia; 16.5 µM in the assay on MALME-3M melanoma; 16 µM in the assay on NCI-H460 lung; 17.7 µM in the assay on OVCAR-5 ovarian. For the same compound, the GI50 with SR leukemia was 12.2 µM; with T-47D breast it was 16.5 µM; in the assay on UACC-257 melanoma, 16.3 µM. The TGI with A498 renal is 31.1 µM; in the assay with DU-145 prostate, 31.8 µM; with HL-60(TB) leukemia, 28.8 µM; in the assay with MALME-3M melanoma, 30.4 µM; with NCI-H460 lung, 29.8 µM; in the assay with OVCAR-5 ovarian, 31.6 µM. Besides, the TGI was determined as 27.8 µM in the assay on SR leukemia, 30.3 µM in the assay on T-47D breast and 30.3 µM with UACC-257 melanoma.
Consider `O=C(c1ccc2ccccc2c1)c1c(C(F)(F)F)n([O-])c2cc(Cl)c(Cl)cc2[n+]1=O`, for which the GI50 in the assay on A498 renal was 1.96 µM; in the assay on DU-145 prostate, 1.57 µM; with HL-60(TB) leukemia, 1.81 µM; in the assay with MALME-3M melanoma it was 1.58 µM; with NCI-H460 lung, 2.02 µM; with OVCAR-5 ovarian it was 1.65 µM. The GI50 in the assay with SF-539 CNS was 1.59 µM; with T-47D breast, 1.24 µM; in the assay with UACC-257 melanoma, 1.63 µM. Moreover, the TGI in the assay on A498 renal amounted to 4.68 µM; in the assay with DU-145 prostate, 2.9 µM; in the assay on HL-60(TB) leukemia, 3.87 µM; with MALME-3M melanoma it was 3 µM; in the assay with NCI-H460 lung, 4.15 µM; in the assay on OVCAR-5 ovarian it was 3.01 µM. For the same compound, the TGI in the assay on SF-539 CNS was 2.93 µM; in the assay on T-47D breast it was 3.01 µM; in the assay with UACC-257 melanoma, 3.03 µM.
As to `Cc1nn(-c2ccc(S(=O)(=O)[O-])cc2)c([O-])c1N=[N+](C)c1ccc(-c2ccc(N=Nc3ccc4c(S(=O)(=O)[O-])cc(S(=O)(=O)[O-])c(N)c4c3[O-])c([O-])c2)cc1[O-].[Cu+2].[Cu+2].[Na+]`, the GI50 in the assay on A498 renal, in the assay on DU-145 prostate, in the assay on MALME-3M melanoma, in the assay with NCI-H460 lung, in the assay with OVCAR-5 ovarian and in the assay with SF-539 CNS was more than 100 µM each time. For the same compound, the GI50 in the assay with SR leukemia, in the assay on T-47D breast and with UACC-257 melanoma was more than 100 µM each time. In addition, the TGI in the assay on A498 renal, with DU-145 prostate, in the assay with MALME-3M melanoma, in the assay on NCI-H460 lung, in the assay with OVCAR-5 ovarian and in the assay on SF-539 CNS was more than 100 µM throughout. In addition, the TGI in the assay with SR leukemia, in the assay with T-47D breast and in the assay with UACC-257 melanoma was more than 100 µM each time.
Regarding `C[C@@H]1CC[C@H]2C(COCC3=C(C(F)(F)F)O[C@@H]4O[C@@]5(C)CC[C@H]6[C@H](C)CC[C@@H]3[C@@]46OO5)=C(C(F)(F)F)O[C@@H]3O[C@@]4(C)CC[C@@H]1[C@]32OO4`, the GI50 in the assay with A498 renal was 32.7 µM; in the assay on HL-60(TB) leukemia, less than 0.01 µM; in the assay on MALME-3M melanoma it was less than 0.01 µM; in the assay with NCI-H460 lung, less than 0.01 µM; in the assay with OVCAR-5 ovarian, 0.0101 µM; in the assay with SF-539 CNS, less than 0.01 µM. Further, the GI50 with SR leukemia and with T-47D breast was less than 0.01 µM in each case. Further, the TGI in the assay on A498 renal, in the assay on HL-60(TB) leukemia, in the assay on MALME-3M melanoma, in the assay with NCI-H460 lung, in the assay on OVCAR-5 ovarian and with SF-539 CNS was more than 100 µM each time. The TGI in the assay with SR leukemia and in the assay with T-47D breast was more than 100 µM each time.
Turning to `CC(=O)c1ccc(Nc2cc(-c3ccccc3)nc3c(O)cccc23)cc1`, the GI50 with A498 renal was 25.3 µM; in the assay on DU-145 prostate, 21.8 µM; with HL-60(TB) leukemia, 3.13 µM; in the assay with MALME-3M melanoma, 19.6 µM; with OVCAR-5 ovarian, 54.5 µM; in the assay with SF-539 CNS, 21.5 µM. The results for the GI50 in the assay on SR leukemia, in the assay on T-47D breast and in the assay on UACC-257 melanoma were 1.59 µM, 16.6 µM and 21 µM, respectively. The TGI with A498 renal is 71.7 µM; in the assay with DU-145 prostate, more than 100 µM; in the assay with HL-60(TB) leukemia, 30.6 µM; in the assay with MALME-3M melanoma, 68.3 µM; with OVCAR-5 ovarian it was more than 100 µM; in the assay with SF-539 CNS, 68.4 µM. In addition, the values for the TGI in the assay with SR leukemia, in the assay with T-47D breast and in the assay with UACC-257 melanoma were 49.5 µM, 63.7 µM and 53.4 µM, respectively.
`COC(=O)C1OC(O[C@H]2CCC3(C)C(CCC4(C)C3CC=C3C5CC(C)(C)CCC5(C(=O)O)CC[C@]34C)C2(C)C)C(O)C(OC2OC(CO)C(O)C(O)C2O)C1O` (some centres undefined): the GI50 in the assay with HL-60(TB) leukemia is 6.92 µM; in the assay on NCI-H460 lung, 11.5 µM; with OVCAR-5 ovarian, 7.31 µM; with T-47D breast, 8.16 µM; in the assay on UACC-257 melanoma it was 6.89 µM. Further, the TGI in the assay with HL-60(TB) leukemia was 18.2 µM; in the assay with NCI-H460 lung it was more than 33.3 µM; in the assay on OVCAR-5 ovarian, 13.5 µM; with T-47D breast, 17.2 µM; in the assay on UACC-257 melanoma, 16.1 µM.
`N#Cc1c(-c2cccs2)c2c(=S)[nH]c(=S)[nH]c2[nH]c1=S`: the GI50 is 24 µM in the assay on DU-145 prostate; 15.4 µM in the assay with HL-60(TB) leukemia; 39.1 µM in the assay with NCI-H460 lung; more than 100 µM with OVCAR-5 ovarian; 22 µM in the assay on SF-539 CNS; 29.3 µM with SR leukemia. Besides, the values for the GI50 in the assay on T-47D breast and in the assay on UACC-257 melanoma were 28.1 µM and 18 µM, respectively. Further, the TGI in the assay on DU-145 prostate is 78.7 µM; in the assay with HL-60(TB) leukemia it was 47.9 µM; with NCI-H460 lung it was 72.9 µM; with OVCAR-5 ovarian, more than 100 µM; with SF-539 CNS, 48.1 µM; in the assay with SR leukemia, more than 100 µM. Moreover, the TGI in the assay with T-47D breast came to 98.8 µM; with UACC-257 melanoma, 81.3 µM.
For the compound `C=C1CCC2C(/C=C(\C)CCC1O)OC(=O)C2C` (centres undefined), the GI50 in the assay with DU-145 prostate was more than 100 µM; in the assay on HL-60(TB) leukemia it was 51.5 µM; in the assay on MALME-3M melanoma, more than 100 µM; in the assay with NCI-H460 lung, more than 100 µM; in the assay on OVCAR-5 ovarian, more than 100 µM; with SF-539 CNS it was more than 100 µM. The GI50 with SR leukemia, in the assay with T-47D breast and in the assay with UACC-257 melanoma was more than 100 µM each time. The TGI with DU-145 prostate, in the assay on HL-60(TB) leukemia, in the assay with MALME-3M melanoma, with NCI-H460 lung, in the assay on OVCAR-5 ovarian and in the assay with SF-539 CNS was more than 100 µM throughout. The TGI with SR leukemia, in the assay with T-47D breast and with UACC-257 melanoma was more than 100 µM each time.
Turning to `COc1ccc(-c2cc(-c3cc(Cl)ccc3Cl)nc3[nH]c(-c4cc(F)c(Cl)cc4Cl)cc(=O)c23)cc1`, the GI50 in the assay with DU-145 prostate was 31.3 µM; in the assay on NCI-H460 lung, 87.3 µM; with OVCAR-5 ovarian it was 22.2 µM; in the assay on SF-539 CNS, 18.9 µM; in the assay with T-47D breast, more than 100 µM; in the assay with UACC-257 melanoma it was 21 µM. Besides, the TGI with DU-145 prostate is more than 100 µM; in the assay on NCI-H460 lung, more than 100 µM; with OVCAR-5 ovarian, 89.2 µM; in the assay with SF-539 CNS it was 55 µM; in the assay with T-47D breast, more than 100 µM; with UACC-257 melanoma, more than 100 µM.
For `O=C(/C=C/c1ccc(Cl)cc1)c1ccc(Cl)cc1Cl`, the GI50 with DU-145 prostate is 7.72 µM; in the assay on HL-60(TB) leukemia, 7.25 µM; in the assay on NCI-H460 lung, 10.4 µM; with OVCAR-5 ovarian, 9.15 µM; in the assay with SF-539 CNS it was 9.68 µM; in the assay with SR leukemia, 2.31 µM. The GI50 with T-47D breast was 3.25 µM; with UACC-257 melanoma, 10.4 µM. Besides, the TGI is 15.7 µM in the assay on DU-145 prostate; 27.9 µM in the assay on HL-60(TB) leukemia; 24.8 µM in the assay with NCI-H460 lung; 18 µM in the assay with OVCAR-5 ovarian; 17.9 µM in the assay on SF-539 CNS; 50 µM in the assay on SR leukemia. Also, the TGI worked out at 22.3 µM in the assay with T-47D breast and 18.5 µM with UACC-257 melanoma.
As to `CNC(=O)c1ccccc1CC1(O)c2ccccc2Oc2ccccc21`, the GI50 in the assay with A498 renal is 4.54 µM; with DU-145 prostate it was 22 µM; with MALME-3M melanoma, 22.8 µM; in the assay with NCI-H460 lung it was 25 µM; with OVCAR-5 ovarian, 29.1 µM; with SF-539 CNS, 17.3 µM. Besides, the GI50 is 6.61 µM with SR leukemia, 21.5 µM with T-47D breast and 33.8 µM in the assay with UACC-257 melanoma. Moreover, the TGI is 37.5 µM in the assay with A498 renal; 56.5 µM in the assay with DU-145 prostate; more than 100 µM with MALME-3M melanoma; 82.6 µM with NCI-H460 lung; more than 100 µM with OVCAR-5 ovarian; 40.8 µM with SF-539 CNS. The results for the TGI in the assay on SR leukemia, with T-47D breast and in the assay with UACC-257 melanoma were 86.4 µM, more than 100 µM and more than 100 µM, respectively.
Regarding `O=c1cc(-c2cccc(F)c2)[nH]c2cc3c(cc12)OCO3`, the TGI is more than 9.41 µM with A498 renal; 1.63 µM with DU-145 prostate; more than 72 µM in the assay with MALME-3M melanoma; 4.31 µM and 22.7 µM in the assay on NCI-H460 lung; more than 100 µM in the assay with OVCAR-5 ovarian; 0.301 µM and 0.247 µM in the assay on SF-539 CNS. For the same compound, the TGI in the assay on T-47D breast and in the assay with UACC-257 melanoma was more than 100 µM throughout. Further, the GI50 with HL-60(TB) leukemia was 0.201 µM; in the assay with NCI-H460 lung, 0.257 µM; in the assay on SF-539 CNS it was 0.133 µM.
